Data reported in US11529359B2, “Use of GABAA receptor modulators for treatment of itch” (UNIVERSITÄT ZÜRICH, priority 2016, dated 2022).

Tests used:
[1] = molecular target: T1, α3 GABAARs (Homo sapiens, UniProt P18507+P34903); test: GABA-evoked currents, recombinant GABAARs in HEK293 cells (α3); format: cell-based; conditions: HEK293 cells transiently transfected
T1 construct: expressed in transfected cells; host or cells: HEK293 cells (ATCC), transient transfection
Description: (§1) HEK293 cells were transfected using lipofectamine LTX (Dugue, G. P., et al. Neuron, 2009, 61, 126-139). To ensure expression of the γ2 subunit (required for modulation of GABAARs by BDZs) in all recorded cells, the inventors transfected cells with a plasmid expressing the γ2 subunit plus eGFP from an IRES, and only selected eGFP-positive cells for recordings. The transfection mixture contained (in μg): 1 α1, 1 β2, 3 γ2/eGFP (used as a marker of successful transfection) or 1 αx, 1 β3, 3 γ2/eGFP in case of α2, α3, or α5GABAARs. Recordings were made 18-36 hrs after transfection. Whole-cell patch-clamp recordings of GABA-evoked currents were made at room temperature (20-24° C.) and at a holding potential of −60 mV. Recording electrodes were filled with solution containing (in mM): 120 CsCl, 10 EGTA, 10 HEPES (pH 7.40), 4 MgCl2, 0.5 GTP and 2 ATP. The external solution contained (in mM): 150 NaCl, 10 KCl, 2.0 CaCl2, 1.0 MgCl2, 10 HEPES (pH 7.4), and 10 glucose. GABA was applied to the recorded cell using a manually controlled pulse (4-6 s) of a low sub-saturating GABA concentration (ECS). ECs values of GABA were determined for all subunit combinations analyzed. […] Imax was determined as the average maximal current elicited by a concentration of 1 mM GABA. […]

[2] = tested on: α-Me-5HT-induced itch; test: α-methyl 5-HT-induced itch (cheek injection) in wild-type mice; format: in vivo, wild-type mice (129X1/SvJ); conditions: 1 mg/kg p.o.; 20 μg α-methyl 5-HT
[3] = tested on: locomotor activity; test: open field test, locomotor activity / sedation; format: in vivo, wild-type mice
Experimental: After injection, the mice were placed in an open field arena and their activity was recorded for one hour starting one hour after injection.
Locomotor activity, muscle relaxant effects and motor coordination were assessed as described previously (Ralvenius, W. T., Benke, D., Acuña, M. A., Rudolph, U. & Zeilhofer, H. U. Nature Communications, 2015, 6). […] Motor coordination was assessed with a rotarod accelerating from 4 rpm to 40 rpm within 5 min. […] Fifteen measurements were taken per mouse. To assess muscle relaxation, mice were placed with their forepaws onto a metal horizontal wire placed 20 cm above ground.

[4] = tested on: α2GABAARs; test: chloroquine-induced biting (thigh injection) in hoxB8-α2−/−, α2fl/fl and α2 (H→R) mice; format: in vivo; conditions: 1 mg/kg p.o., 100 μg chloroquine thigh
Experimental: (§2) Acute itch was assessed in mice that received intradermal microinjections of pruritogens or 0.9% saline into the right cheek, which had been shaved at least one day before the experiment. In two sets of experiments that addressed the contribution of GABAARs in primary and secondary pruritoceptors, pruritogens were injected in the right thigh (FIG. 17). Before injection, mice were acclimatized to a 15 cm diameter cylindrical enclosure for more than 30 min with cage bedding on the ground. Background white noise generated by a radio in the room at ambient volume was applied to prevent auditory distraction. A 30 gauge needle was inserted bevel-up and pushed 5 mm horizontally into the skin beyond the point of insertion, before injection of the pruritogen (in a total volume of 10 μl). No anesthesia was used. Correct injection was confirmed by the appearance of a slightly domed bulla upon injection. […] Videos were analyzed off-line. Scratching of the hind paw directed to the ipsilateral cheek was counted in bouts, with one scratching bout defined as an instance when the mouse lifted its paw to scratch until it returned the paw to the cage floor. In case of experiments in which the pruritogen was injected in the skin of the thigh, the time spent biting the injected skin area was counted in s/min as a measure of itch.

[5] = molecular target: T2, α2GABAARs with H→R point mutation in the α2 subunit (Homo sapiens, UniProt P18507+P47869, H129R); test: positive allosteric modulation of H→R point-mutated α2GABAARs in HEK 293 cells; format: cell-based; conditions: 1 μM
T2 construct: expressed in transfected cells; host or cells: HEK 293 cells, transient transfection
Description: as §1

[6] = molecular target: T3, α1 GABAARs (Homo sapiens, UniProt P14867+P18507); test: GABA-evoked currents, recombinant GABAARs in HEK293 cells (α1); format: cell-based; conditions: HEK293 cells transiently transfected
T3 construct: expressed in transfected cells; host or cells: HEK293 cells (ATCC), transient transfection
Description: as §1

[7] = tested on: α5GABAARs; test: GABA-evoked currents, recombinant GABAARs in HEK293 cells (α5); format: cell-based; conditions: HEK293 cells transiently transfected
Description: as §1

[8] = tested on: histamine-induced itch; test: histamine-induced itch (cheek injection) in wild-type mice; format: in vivo, wild-type C57BL6/J mice; conditions: per oral 0.01, 0.03, 0.1, 1 and 3 mg/kg 90 min before 100 μg histamine; 30 min
Experimental: as §2

[9] = tested on: chloroquine-induced itch; test: chloroquine-induced itch (thigh injection), intrathecal drug, wild-type mice; format: in vivo; conditions: 0.3 mg/kg intrathecal; 100 μg chloroquine into right thigh
Experimental: as §2

[10] = tested on: contact dermatitis-induced chronic itch; test: oxazolone contact dermatitis model of chronic itch in wild-type mice; format: in vivo, wild-type C57BL6/J mice
Experimental: Thus, TPA023B is, in accordance with the other findings of the inventors, suitable as an antipruritic substance.
This was independent of the treatment they received from day 7 to day 27.
The inventors sought to confirm the antipruritic efficacy of α2 and α3 GABAA receptor agonists against contact dermatitis-induced chronic itch. To this end, N-desmethyl clobazam, a benzodiazepine with improved activity at α2 versus α1 was assessed for its antipruritic effects (Jensen et al. PLoS One. 2014 Feb. 12; 9(2):e88456.).
Chronic itch was investigated in the contact dermatitis model (Kido-Nakahara, M., et al. J Clin Invest, 2014, 124, 2683-2695). Mice were treated once with 10% oxazolone in acetone/olive oil (4:1 v/v) on the shaved nape of the neck (100 μl) on day 0. After a resting period of 7 days, mice were treated with 1% oxazolone in acetone/olive oil (4:1 v/v) on the nape of the neck (100 μl) every other day for 10 days. On the day of the experiment, mice were injected with drug or vehicle i.p. under short and light isoflurane anesthesia. […]

[11] = tested on: GABAARs; test: recombinant GABAARs in HEK293 cells, direct activation in the absence of GABA; format: cell-based
Description: as §1

T2 sequence (P47869 29-451 H129R): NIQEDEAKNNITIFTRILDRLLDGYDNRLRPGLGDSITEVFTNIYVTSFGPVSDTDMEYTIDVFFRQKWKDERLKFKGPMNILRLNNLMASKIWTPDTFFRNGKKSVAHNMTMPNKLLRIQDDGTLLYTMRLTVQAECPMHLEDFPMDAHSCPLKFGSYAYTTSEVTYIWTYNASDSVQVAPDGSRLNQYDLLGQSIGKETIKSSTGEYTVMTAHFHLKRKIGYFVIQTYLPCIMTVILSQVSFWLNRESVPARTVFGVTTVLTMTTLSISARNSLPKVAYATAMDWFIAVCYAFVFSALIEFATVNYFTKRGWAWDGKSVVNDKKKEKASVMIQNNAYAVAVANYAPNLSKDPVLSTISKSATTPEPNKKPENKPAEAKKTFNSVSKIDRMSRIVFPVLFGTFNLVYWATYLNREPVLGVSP
T2 sequence (P28472 26-473 partner): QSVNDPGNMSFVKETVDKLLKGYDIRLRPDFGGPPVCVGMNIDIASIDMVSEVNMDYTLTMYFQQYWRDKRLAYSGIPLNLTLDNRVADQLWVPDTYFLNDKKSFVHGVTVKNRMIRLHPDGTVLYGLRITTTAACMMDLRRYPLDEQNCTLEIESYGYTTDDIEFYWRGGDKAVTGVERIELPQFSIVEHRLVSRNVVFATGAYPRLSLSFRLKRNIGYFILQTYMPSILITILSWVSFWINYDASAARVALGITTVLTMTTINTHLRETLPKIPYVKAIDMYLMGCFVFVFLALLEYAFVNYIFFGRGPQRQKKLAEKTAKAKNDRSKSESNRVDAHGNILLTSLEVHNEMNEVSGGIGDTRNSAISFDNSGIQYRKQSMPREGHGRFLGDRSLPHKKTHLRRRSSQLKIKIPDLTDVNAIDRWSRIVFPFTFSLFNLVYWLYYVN
T2 sequence (P18507 40-467 limits assumed): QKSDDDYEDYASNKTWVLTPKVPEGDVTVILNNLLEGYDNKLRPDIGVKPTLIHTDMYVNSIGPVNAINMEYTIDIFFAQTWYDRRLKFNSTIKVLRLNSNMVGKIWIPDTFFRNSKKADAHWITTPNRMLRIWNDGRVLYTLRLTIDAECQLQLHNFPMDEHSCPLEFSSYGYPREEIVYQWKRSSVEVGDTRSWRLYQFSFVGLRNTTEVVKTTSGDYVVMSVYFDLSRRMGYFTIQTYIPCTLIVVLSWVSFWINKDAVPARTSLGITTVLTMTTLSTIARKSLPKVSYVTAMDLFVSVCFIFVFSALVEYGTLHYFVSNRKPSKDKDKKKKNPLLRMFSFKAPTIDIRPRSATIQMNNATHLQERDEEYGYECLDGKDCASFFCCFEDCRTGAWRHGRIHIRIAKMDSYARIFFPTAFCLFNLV
T3 sequence (P14867 28-456): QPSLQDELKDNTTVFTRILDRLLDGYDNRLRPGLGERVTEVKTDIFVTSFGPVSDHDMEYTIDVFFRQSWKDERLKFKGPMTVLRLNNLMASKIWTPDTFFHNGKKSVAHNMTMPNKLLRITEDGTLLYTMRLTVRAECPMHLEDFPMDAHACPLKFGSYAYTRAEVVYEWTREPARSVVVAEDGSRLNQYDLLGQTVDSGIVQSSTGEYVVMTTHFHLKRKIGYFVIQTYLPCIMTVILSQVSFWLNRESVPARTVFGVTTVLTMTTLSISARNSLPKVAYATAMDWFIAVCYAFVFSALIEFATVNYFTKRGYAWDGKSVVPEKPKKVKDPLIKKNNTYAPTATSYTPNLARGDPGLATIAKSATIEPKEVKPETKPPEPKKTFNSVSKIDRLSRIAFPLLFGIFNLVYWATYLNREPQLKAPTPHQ
T3 sequence (P47870 25-512 partner limits assumed): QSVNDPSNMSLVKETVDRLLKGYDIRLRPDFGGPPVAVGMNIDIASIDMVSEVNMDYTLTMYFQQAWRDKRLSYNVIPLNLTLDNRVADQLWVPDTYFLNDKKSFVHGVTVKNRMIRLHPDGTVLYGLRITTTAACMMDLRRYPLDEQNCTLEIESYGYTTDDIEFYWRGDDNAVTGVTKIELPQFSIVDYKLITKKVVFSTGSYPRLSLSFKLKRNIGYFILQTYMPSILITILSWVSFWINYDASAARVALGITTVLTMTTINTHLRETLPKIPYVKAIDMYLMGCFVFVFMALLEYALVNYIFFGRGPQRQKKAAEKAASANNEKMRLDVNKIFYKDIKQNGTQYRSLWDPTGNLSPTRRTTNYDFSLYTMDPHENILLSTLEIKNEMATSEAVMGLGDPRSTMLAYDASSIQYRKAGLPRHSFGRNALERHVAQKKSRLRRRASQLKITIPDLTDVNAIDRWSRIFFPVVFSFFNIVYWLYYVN
T3 sequence (P18507 40-467 limits assumed): as the sequence (P18507 40-467 limits assumed) above
T1 sequence (P34903 29-492): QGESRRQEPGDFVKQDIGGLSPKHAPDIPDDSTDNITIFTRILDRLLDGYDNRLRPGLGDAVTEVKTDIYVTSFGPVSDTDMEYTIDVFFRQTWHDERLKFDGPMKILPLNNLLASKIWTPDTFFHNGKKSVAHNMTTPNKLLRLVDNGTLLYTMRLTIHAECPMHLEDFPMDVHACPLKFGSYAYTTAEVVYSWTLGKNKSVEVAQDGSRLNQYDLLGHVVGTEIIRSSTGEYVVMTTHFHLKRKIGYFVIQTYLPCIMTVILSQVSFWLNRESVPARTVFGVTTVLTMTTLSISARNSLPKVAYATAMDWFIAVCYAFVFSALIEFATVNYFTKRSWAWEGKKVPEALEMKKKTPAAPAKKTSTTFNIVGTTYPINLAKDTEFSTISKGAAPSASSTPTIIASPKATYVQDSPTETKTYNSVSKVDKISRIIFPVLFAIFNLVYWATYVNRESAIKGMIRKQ
T1 sequence (P28472 26-473 partner): as the sequence (P28472 26-473 partner) above
T1 sequence (P18507 40-467 limits assumed): as the sequence (P18507 40-467 limits assumed) above

CC(C)(O)c1cnn2c(-c3ccc(F)c(-c4c(F)cccc4C#N)c3)cnc2n1 [TPA023B, 6,2′-difluoro-5′-[3-(1-hydroxy-1-methylethyl)imidazo[1,2-b][1,2,4]triazin-7-yl]biphenyl-2-carbonitrile]
activity at the benzodiazepine binding site (potentiation of GABA-induced currents) [1]: partial agonistic activity | antipruritic action in wild-type mice [2]: strong antipruritic actions | locomotor activity in the open field test ([3]; 1 and 3 mg/kg p.o.): increased locomotor activity | sedative effects ([3]; doses up to 3 mg/kg (p.o.)): did not show sedative effects | activity in open field arena vs vehicle ([3]; per oral 10 mg/kg and 30 mg/kg, recorded 1-2 h after injection): significant increase in activity | biting responses, hoxB8-α2−/− mice vs global α2R/R mice [4]: No significant difference | biting responses in treated mice compared between genotypes ([4]; hoxB8-α2−/−, α2fl/fl and α2 (H→R) mice): differed significantly between genotypes | positive allosteric modulation of H→R point-mutated α2GABAARs [5]: abolished | potentiation of GABA-induced currents [6]: did not potentiate GABA-induced currents | potentiation of GABA-induced currents [7]: only very weak potentiating effects | scratching bouts, histamine-induced itch [8]: dose-dependent reduction of scratching bouts | antipruritic action after intrathecal injection (biting time, scratching bouts 0-10 min) [9]: antipruritic action | tolerance development to the antipruritic effects ([10]; 1 mg/kg i.p. for nine consecutive days, d/d vs v/d): exclude tolerance development | scratching bouts directed at the nape of the neck vs vehicle ([10]; 1 mg/kg i.p. on day 18, 15 to 210 min after injection): significant reduction in scratching bouts | scratching bouts on day 28 vs vehicle, independent of pretreatment ([10]; 1 mg/kg i.p. on day 28 after vehicle or 1 mg/kg once daily for nine consecutive days): significant reduction in scratching bouts | activation of GABAARs in the absence of GABA [11]: did not activate
